Assay [1] addresses T1, RIP3 (Homo sapiens, UniProt Q9Y572). Kind of assay: Basal S227 auto-phosphorylation of RIP3 in HT-29 cells (immunoblot). Format: cell-based. Also noted: RIP3-expressing HT-29 cells; endogenous in cells; host or cells: HT-29. The conditions noted are these: 10 μM, 9 h. Here is the method:
(§1) Cells were rinsed in cold phosphate-buffered saline (PBS) and lysed in M2 buffer containing 20 mM Tris at pH 7, 0.5% NP-40, 250 mM NaCl, 3 mM EDTA, 3 mM EGTA, 2 mM DTT, 0.5 mM PMSF, 20 mM β-glycerol phosphate, 1 mM sodium vanadate, and 1 μg/mL leupeptin. The cell extracts were subjected to western blot analysis. For immunoprecipitation, lysates were mixed and precipitated with antibody and protein A-agarose beads overnight or for 4 h at 4 °C. Bound proteins were removed by boiling in SDS and resolved by SDS-PAGE, and immunoblotting was visualized by enhanced chemiluminescence (ECL, Amersham).
RIP3 kinase activity is essential for TNF-induced necroptosis, and human S227 auto-phosphorylation sites of RIP3 are required for the interaction of RIP3 with its substrate MLKL[13],[14], which is indispensable for downstream necroptotic cell death signaling. To test the possible effects of the RIP3 inhibitors on necroptosis, HT-29 cells were treated with the kinase inhibitors, and RIP3 kinase activity was determined by examining its phosphorylation status.
(§2) Fig. 2 Novel inhibitors can block RIP3 S227 phosphorylation. a Western blotting showing various kinase inhibitor effects on RIP3 S227 auto-phosphorylation. HT-29 cells were treated with four tested kinase inhibitors (1308, 1336, 1338, and 1371, 10 μM) for 9 h. As a control, KK5101 (Trk alpha inhibitor) and HS829 (IKK beta inhibitor) were also treated at a concentration of 10 μM for 9 h. Prototypical necroptosis stimuli (TNF + zVAD + either cycloheximide or SMAC mimetic; hereafter referred to as TCZ or TSZ) were applied for 6 h. […] HT-29 cells were treated with 4 tested kinase inhibitors for 24 h, and cell viability was analyzed by MTT assay or phase-contrast microscopy. […] HT-29 cells were pretreated with necrostatin-1 (Nec-1, 40 μM), dabrafenib (DAB, 10 μM) or necrosulfonamide (NSA, 1 μM) for 2 h and then treated with TSZ for 6 h. […] HT-29 cells were pretreated with four tested kinase inhibitors for 2 h and then treated with TSZ for 6 h. Cell lysates were analyzed by immunoblotting. f HT-29 cells were pretreated with Nec-1 (40 μM), DAB (5 μM) or HS-1371 (5 μM) for 2 h and then treated with TSZ for 4 h. Cell lysates were immunoprecipitated with anti-RIP3 antibody. Immunoprecipitates and total lysates were analyzed by Western blotting

Assay [2] deals with T1, RIP3. Put plainly: S227 auto-phosphorylation of overexpressed RIP3 in 293T cells (immunoblot). The assay is classed as cell-based. The conditions noted are these: 293T cells transfected with Flag-hRIP3. The text has this: TNFα Smac mimetic and the caspase inhibitor zVAD (hereafter referred to as TSZ) is a classical combination that is used to induce RIP3-mediated necroptotic cell death[10],[32]. We first verified that three established pharmacological inhibitors of necroptosis, necrostatin-1 (Nec-1), necrosulfonamide (NSA), and dabrafenib (DAB) could block TNF-induced necroptosis (Fig. 2d). Of these inhibitors, Nec-1 inhibits RIP1 kinase activity[33],[34], DAB inhibits RIP3 kinase activity, and NSA inhibits MLKL functions downstream of RIP3 phosphorylation. […] Next, we tested whether these four inhibitors would inhibit TNF-induced necroptosis signaling by blocking RIP3 kinase activity. […] The effect of HS-1371 on RIP3 kinase activity was compared with another RIP3 inhibitor, GSK’872[16]. […]
(a) Overexpression of RIP3 could induce S227 phosphorylation without stimuli. […] After cells were harvested, cell lysates were analyzed by […]
kinase inhibitor. HT-29 cells were treated with HS -1371 or GSK’872 indicated concentrations for 9 h, and cell lysates were analyzed by immunoblotting.
(c) Cytotoxicity of HS-1371 was compared with GSK’872. HT-29 cells were treated with 2 kinase inhibitors for 24 h and cell viability was analyzed by MTT assay.
(d) Inhibition of MLKL phosphorylation by HS-1371 was compared with other two RIP3 kinases inhibitors, DAB (5 μM) and GSK’872 (5 μM). […] Cell lysates were analyzed by […]

The subject of assay [3] is p-MLKL. Put plainly: Phospho-MLKL immunofluorescence in HT-29 cells. Format: cell-based, human. Conditions: HT-29, immunofluorescence. Here is the method:
HT-29 cells were fixed in 4% paraformaldehyde for 10 min. To stain phospho-MLKL, cells were permeabilized with 0.25% Triton X-100 for 10 min. After incubation in a blocking buffer (10% fetal bovine serum in DPBS) for 30 min, the primary antibody to phospho-MLKL was incubated overnight at 4 °C, and FITC-conjugated secondary antibody (goat anti-rabbit IgG, 1:250, dilution, Invitrogen) was incubated for 1 h at room temperature. A mounting medium containing DAPI (VECTASHIELD, Cat No. 94010, Vector Laboratories) was used for counterstaining. Representative images were taken by confocal microscope.
HT-29 cells were pretreated with four tested inhibitors for 2 h and then treated with TSZ (6 h for immunoblotting, 24 h for cell death assay). Cell lysates were analyzed by immunoblotting, and cell viability was analyzed by MTT assay or phase-contrast microscopy. The results are presented as the means ± SEM. *P < 0.05, **P < 0.01, ***P < 0.001. b Protection of necroptosis by HS-1371 treatment is similar with dabrafenib, which abolished downstream events. HT-29 cells were pretreated with various necroptosis inhibitors and HS-1371 before TSZ treatment. Cell lysates were analyzed by immunoblotting, and cell viability was analyzed by MTT assay (left panel). Cells were stained with phospho-MLKL antibody and analyzed by confocal fluorescence microscopy (middle panel), and cell death was further analyzed by FACS analysis after PI staining (right panel). c HS-1371 protects cells from TNF-induced necroptosis in a dose-dependent manner. HT-29 cells were pretreated with indicated concentrations of HS-1371 and then treated with TSZ (6 h for immunoblotting, 24 h for cell death assay). Cell lysates were analyzed by immunoblotting, and cell viability was analyzed by MTT assay or phase-contrast microscopy. The results are presented as means ± SEM. *P < 0.05, **P < 0.01, ***P < 0.001 TEXT PRINTED IN THE PICTURE: (b) TSZ: 20.7 | (b) TSZ + Nec-1: 5.8 | (b) TSZ + DAB: 5.5 | (b) TSZ + 1371: 6.8 DOUBTS OF THE COPYIST ABOUT THIS PICTURE: Panel b, flow cytometry plots: the red gate numbers are printed without a measure or unit, so none is given / Panel b: the 'Untreated' control plot prints 7.7; left out because it is not a substance

Assay [4] addresses T1, RIP3. Kind of assay: TNF (TSZ)-induced RIP3 and MLKL phosphorylation in HT-29 cells (immunoblot). The assay is classed as cell-based. Also noted: RIP3-expressing HT-29 cells; endogenous in cells; host or cells: HT-29. Conditions: HT-29; Nec-1 40 μM, DAB 10 μM, NSA 1 μM pretreated 2 h, TSZ 6 h. How it is done: as §1, §2
TNFα Smac mimetic and the caspase inhibitor zVAD (hereafter referred to as TSZ) is a classical combination that is used to induce RIP3-mediated necroptotic cell death[10],[32]. We first verified that three established pharmacological inhibitors of necroptosis, necrostatin-1 (Nec-1), necrosulfonamide (NSA), and dabrafenib (DAB) could block TNF-induced necroptosis (Fig. 2d). Of these inhibitors, Nec-1 inhibits RIP1 kinase activity[33],[34], DAB inhibits RIP3 kinase activity, and NSA inhibits MLKL functions downstream of RIP3 phosphorylation. […] Next, we tested whether these four inhibitors would inhibit TNF-induced necroptosis signaling by blocking RIP3 kinase activity. […] The effect of HS-1371 on RIP3 kinase activity was compared with another RIP3 inhibitor, GSK’872[16].

SMILES strings stand for the structures.

T1 sequence (Q9Y572 whole entry): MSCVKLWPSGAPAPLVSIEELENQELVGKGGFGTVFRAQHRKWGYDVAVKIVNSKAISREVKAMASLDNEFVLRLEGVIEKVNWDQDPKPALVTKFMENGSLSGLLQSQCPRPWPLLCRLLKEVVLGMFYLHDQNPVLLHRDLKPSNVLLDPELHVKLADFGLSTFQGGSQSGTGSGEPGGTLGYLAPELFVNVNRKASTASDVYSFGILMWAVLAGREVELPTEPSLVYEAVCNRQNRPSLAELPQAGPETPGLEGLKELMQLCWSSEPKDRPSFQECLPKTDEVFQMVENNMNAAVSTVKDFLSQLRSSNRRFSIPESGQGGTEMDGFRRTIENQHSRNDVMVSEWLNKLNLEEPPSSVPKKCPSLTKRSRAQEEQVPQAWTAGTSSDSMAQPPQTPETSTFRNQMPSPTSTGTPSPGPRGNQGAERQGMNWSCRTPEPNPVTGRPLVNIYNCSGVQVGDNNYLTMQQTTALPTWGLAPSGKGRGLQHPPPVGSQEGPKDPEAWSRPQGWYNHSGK

`Fc1ccccc1Nc1ccnc2cc(-c3cnn(C4CCNCC4)c3)ccc12` [HS-1308]: the “effect on S227 auto-phosphorylation of RIP3 at the basal level” value in assay [1] is recorded as “inhibitory effect”.
Still for that read-out and setting: the same measure for `Fc1ccc(Oc2ccnc3cc(-c4cnn(C5CCNCC5)c4)ccc23)c(F)c1` [HS-1336]: “inhibitory effect”; for `Fc1cccc(Oc2ccnc3cc(-c4cnn(C5CCNCC5)c4)ccc23)c1` [HS-1338]: “inhibitory effect”.
Take `CC(C)(C)c1nc(-c2cccc(NS(=O)(=O)c3c(F)cccc3F)c2F)c(-c2ccnc(N)n2)s1` [dabrafenib]: the “S227 auto-phosphorylation of overexpressed RIP3” value in assay [2] is reported as “inhibited”. The “p-MLKL detection / translocation after TSZ” value in assay [3] is given as “no detection of p-MLKL”. Besides, the “block of TNF-induced necroptosis (RIP3 phosphorylation)” value in assay [4] is “could block”.
`CN1C(=O)C(Cc2c[nH]c3ccccc23)NC1=S` (stereo not shown) [necrostatin-1, reference compound]: the “p-MLKL detection / translocation after TSZ” value in assay [3] is “no detection of p-MLKL”. In assay [4], the “block of TNF-induced necroptosis (RIP3 phosphorylation)” value is given as “could block”.
The matching figures for `COc1nccnc1NS(=O)(=O)c1ccc(NC(=O)/C=C/c2ccc([N+](=O)[O-])s2)cc1` [necrosulfonamide, reference compound]: “could not translocate into the plasma membrane” and “could block”.
